Experimental data from patent US20230048901A1, “SOLID ORAL FORMULATION OF UTIDELONE” (Beijing Biostar Pharmaceuticals Co., Ltd., priority 2020, published 2023).

Test: Solubility of Utidelone in water and organic solvents
Assay type: physicochemical
Protocol: The saturated solubility in water is less than 1 μg/ml, so it is difficult to develop into an oral formulation with suitable bioavailability. At present, the marketed epothilone antitumor drugs such as Utidelone injection and Ixabepilone injection etc., all of which use non-aqueous solvents such as ethanol and polyoxyl castor oil as solvents, are diluted with sodium chloride injection for administration by intravenous infusion. Since polyoxyl castor oil is a strong allergenic substance, antiallergic treatment must be given before intravenous administration, which reduces the compliance of this type of drug in clinical use, increases the adverse reactions of patients, and limits its clinical application.

Question: For `C/C1=C/CC(/C(C)=C/c2csc(C)n2)OC(=O)C[C@H](O)C(C)(C)C(=O)[C@H](C)[C@@H](O)[C@@H](C)CCC1` (stereo partly drawn) [Utidelone, 4,8-dihydroxy-5,5,7,9,13-pentamethyl-16-[1-methyl-2-(2-methyl-thiazole-4-yl)-vinyl]-hexadecoxetane-13-en-2,6-one lactone], which “solubility in organic solvents” value (ethanol, methanol, ethyl acetate, chloroform) is on record?
Answer: easily soluble

Question: What about the “solubility in water” value (water) of the same compound?
Answer: insoluble in water

Question: And the solubility (water, read-out: saturated solubility in water)?
Answer: < 1 µg/mL
